Measurements: PubChem BioAssay (NCI)
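Values below derive from 48-hour exposures of cells grown in 96-well plates, with endpoints linearly interpolated between the two concentrations bracketing the appropriate inhibition level. The concentration for 50% growth inhibition is given as GI50. The concentration for full growth arrest is given as TGI.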

What was measured:
Test in all cases: growth of human tumour cells (NCI), 48 h
SNB-75 CNS = test system: SNB-75 CNS
LOX IMVI melanoma = test system: LOX IMVI melanoma
COLO 205 colon = test system: COLO 205 colon
CAKI-1 renal = test system: CAKI-1 renal
BT-549 breast = test system: BT-549 breast
SF-295 CNS = test system: SF-295 CNS
786-0 renal = test system: 786-0 renal
SK-OV-3 ovarian = test system: SK-OV-3 ovarian
HS 578T breast = test system: HS 578T breast
SF-539 CNS = test system: SF-539 CNS

Compound	GI50 (SNB-75 CNS) [µM]	TGI (SNB-75 CNS) [µM]	GI50 (LOX IMVI melanoma) [µM]	TGI (LOX IMVI melanoma) [µM]	GI50 (COLO 205 colon) [µM]	TGI (COLO 205 colon) [µM]	GI50 (CAKI-1 renal) [µM]	TGI (CAKI-1 renal) [µM]	GI50 (BT-549 breast) [µM]	TGI (BT-549 breast) [µM]	GI50 (SF-295 CNS) [µM]	TGI (SF-295 CNS) [µM]	GI50 (786-0 renal) [µM]	TGI (786-0 renal) [µM]	GI50 (SK-OV-3 ovarian) [µM]	TGI (SK-OV-3 ovarian) [µM]	GI50 (HS 578T breast) [µM]	TGI (HS 578T breast) [µM]	GI50 (SF-539 CNS) [µM]	TGI (SF-539 CNS) [µM]
CSc1ncc(Br)c(Sc2nc(N)nc3nc[nH]c23)n1	2.82	81.4	0.816	17.7	3.09	9.17	1.84	34.1	2.64	> 100	1.15	> 100	3.82	> 100	1.62	10.3	6.71	> 100	3.2	15
O=C(Nc1ccc(-n2ccc3c(NC(=O)c4ccccc4)ncnc32)cc1)c1cccc(C(F)(F)F)c1	3.58	22.3	0.218	5.83	4.1	20.9	1.13	> 44.6	9.57	30	1.07	16.9	2.91	21.9	4.12	29.4	3.65	33.3	1.11	> 93.3
C1=C/COCc2cc(ccc2OCCN2CCCC2)Nc2nccc(n2)-c2ccc(o2)COC/1	1.25	2.75	0.817	2.29	1.29	2.75	0.46	3.28	2.18	4.95	2.74	8.02	2.71	13	2.44	7.53	1.89	6.77	1.72	3.33
O=C(/C=C/c1ccc(C(F)(F)F)cc1)Nc1ccc(C=C2c3ccccc3C(=O)c3ccccc32)cc1	7.26	39.1	14.2	> 100	6.18	38.4	3.39	> 100	3.33	48	4.24	> 100	13.6	> 100	12.7	86.7	13.1	> 100	23.1	96.3
O=c1c2cc(-c3ccccc3)sc2ncn1Cc1ccc(Cl)c(Cl)c1	18.1	48.7	51.9	> 100	> 100	> 100	16.4	49.1	21	60.4	12.3	30.6	14.2	43.3	19.4	58	11	45.1	14	43
[O-][N+]1(CC[N+]2([O-])CCCCC2)CCCCC1		> 100		> 100		> 100		> 100		> 100		> 100		> 100		> 100		> 100		> 100
